Patent US6355799B1, “Substituted benzene compounds, process for their preparation, and herbicidal and defoliant compositions containing them” (ISK Americas Incorporated, priority 1997, dated 2002)

Experiments:
Type in all cases: in vivo
[1] = test system: field corn (Zea mays L., var. Dekalb 535, CORN); assay: Post-emerge test, crop safety; details: phytotoxicity rating 0-100 (0 no damage, 100 complete death), 14 days after application
Procedure, shortened: (§1)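 Each test used a mechanized track sprayer delivering 187 l/ha of acetone solution at 15–1000 g ai/ha. Post-emerge foliage at 2–3 leaves was treated with added 0.25% v/v non-ionic surfactant and bottom-watered only. Injury was assessed on day 14, where 100 means total kill.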

[2] = test system: upland rice (Oryza sp., var. Tebonnet, RICE); assay: Post-emerge test, crop safety; details: phytotoxicity rating 0-100 (0 no damage, 100 complete death), 14 days after application
Procedure, shortened: as §1

[3] = test system: field corn (Zea mays L., var. Dekalb 535, CORN); assay: Pre-emerge test, crop safety; details: pre-emerge, rated 14 days after application, 0 = no damage, 100 = complete death
Procedure, shortened: (§2)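 Sandy loam pots; pre-emerge: sown 1 d pre-spray, surface-watered after, then bottom-watered. Post-emerge: sown 8–21 d before, 2–3 leaf stage, + 0.25% v/v NIS, bottom-watered. Acetone, 187 l/ha track spray, 15–1000 g ai/ha. 0–100 injury score, day 14.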

[4] = test system: upland rice (Oryza sp., var. Tebonnet, RICE); assay: Pre-emerge test, crop safety; details: pre-emerge, rated 14 days after application, 0 = no damage, 100 = complete death
Procedure, shortened: as §2

[5] = test system: redroot pigweed (Amaranthus retroflexus, AMARE); assay: Pre-emerge test, greenhouse herbicide activity screening; details: pre-emerge, rated 14 days after application, 0 = no damage, 100 = complete death
Procedure, shortened: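 Compounds in acetone were track-sprayed at 15-1000 g ai/ha (187 l/ha) on sandy loam pots: pre-emerge one day after seeding, post-emerge at 2-3 leaf stage with 0.25% v/v non-ionic surfactant. Phytotoxicity was rated 14 days later on a 0 (no damage) to 100 (complete death) scale.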

[6] = test system: barnyardgrass (Echinochloa crus-galli, ECHCG); assay: as above; details: pre-emerge, rated 14 days after application, 0 = no damage, 100 = complete death
Procedure, shortened: (§3)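 Plants grown in 10 cm pots of sandy loam mix received acetone-dissolved compounds through a moving flat-fan nozzle. Doses ranged from 15 to 1000 g ai/ha. Pre-emerge pots were seeded one day earlier, post-emerge pots 8–21 days earlier. Fourteen days on, each pot was graded 0–100 for damage.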

[7] = test system: green foxtail (Setaria viridis, SETVI); assay: as above; details: pre-emerge, rated 14 days after application, 0 = no damage, 100 = complete death
Procedure, shortened: as §3

[8] = test system: ivyleaf morningglory (Ipomoea hederacea, IPOHE); assay: as above; details: pre-emerge, rated 14 days after application, 0 = no damage, 100 = complete death
Procedure, shortened: as §3

[9] = test system: velvetleaf (Abutilon theophrasti, ABUTH); assay: as above; details: pre-emerge, rated 14 days after application, 0 = no damage, 100 = complete death
Procedure, shortened: as §3

[10] = test system: sicklepod (Cassia obtusifolia, CASOB); assay: as above; details: pre-emerge, rated 14 days after application, 0 = no damage, 100 = complete death
Procedure, shortened: as §3

[11] = test system: johnsongrass (Sorghum halepense, SORHA); assay: as above; details: pre-emerge, rated 14 days after application, 0 = no damage, 100 = complete death
Procedure, shortened: as §3

[12] = test system: lambsquarters (Chenopodium album, CHEAL); assay: as above; details: pre-emerge, rated 14 days after application, 0 = no damage, 100 = complete death
Procedure, shortened: as §3

[13] = test system: large crabgrass (Digitaria sanguinalis, DIGSA); assay: as above; details: pre-emerge, rated 14 days after application, 0 = no damage, 100 = complete death
Procedure, shortened: as §3

[14] = test system: barnyardgrass (Echinochloa crus-galli, ECHCG); assay: Post-emerge test, greenhouse herbicide activity screening; details: phytotoxicity rating 0-100 (0 no damage, 100 complete death), 14 days after application
Procedure, shortened: as §3

[15] = test system: redroot pigweed (Amaranthus retroflexus, AMARE); assay: as above; details: phytotoxicity rating 0-100 (0 no damage, 100 complete death), 14 days after application
Procedure, shortened: as §3

[16] = test system: green foxtail (Setaria viridis, SETVI); assay: as above; details: phytotoxicity rating 0-100 (0 no damage, 100 complete death), 14 days after application
Procedure, shortened: as §3

[17] = test system: ivyleaf morningglory (Ipomoea hederacea, IPOHE); assay: as above; details: phytotoxicity rating 0-100 (0 no damage, 100 complete death), 14 days after application
Procedure, shortened: as §3

[18] = test system: velvetleaf (Abutilon theophrasti, ABUTH); assay: as above; details: phytotoxicity rating 0-100 (0 no damage, 100 complete death), 14 days after application
Procedure, shortened: as §3

[19] = test system: sicklepod (Cassia obtusifolia, CASOB); assay: as above; details: phytotoxicity rating 0-100 (0 no damage, 100 complete death), 14 days after application
Procedure, shortened: as §3

[20] = test system: johnsongrass (Sorghum halepense, SORHA); assay: as above; details: phytotoxicity rating 0-100 (0 no damage, 100 complete death), 14 days after application
Procedure, shortened: as §3

[21] = test system: lambsquarters (Chenopodium album, CHEAL); assay: as above; details: phytotoxicity rating 0-100 (0 no damage, 100 complete death), 14 days after application
Procedure, shortened: as §3

[22] = test system: large crabgrass (Digitaria sanguinalis, DIGSA); assay: as above; details: phytotoxicity rating 0-100 (0 no damage, 100 complete death), 14 days after application
Procedure, shortened: as §3

Cc1c(Cl)cc(F)c(-n2c(=O)cc(C(F)(F)F)n(C)c2=O)c1N [Compound 1-37]
15: Pre-emerge crop damage CORN (phytotoxicity rating, scale 0-100) ([3]; 63 g ai/ha)
70: Post-emerge Herbicidal Activity SORHA ([20]; 250 g ai/ha) | Post-emerge Herbicidal Activity DIGSA ([22]; 250 g ai/ha)
20: Post-emerge Herbicidal Activity SETVI ([16]; 63 g ai/ha)
100: Pre-emerge Herbicidal Activity AMARE (phytotoxicity rating, scale 0-100) ([5]; 63 g ai/ha) | Pre-emerge Herbicidal Activity AMARE (phytotoxicity rating, scale 0-100) ([5]; 250 g ai/ha) | Pre-emerge Herbicidal Activity ECHCG (phytotoxicity rating, scale 0-100) ([6]; 250 g ai/ha) | Pre-emerge Herbicidal Activity SETVI (phytotoxicity rating, scale 0-100) ([7]; 63 g ai/ha) | Pre-emerge Herbicidal Activity SETVI (phytotoxicity rating, scale 0-100) ([7]; 250 g ai/ha) | Pre-emerge Herbicidal Activity IPOHE (phytotoxicity rating, scale 0-100) ([8]; 63 g ai/ha) | Pre-emerge Herbicidal Activity IPOHE (phytotoxicity rating, scale 0-100) ([8]; 250 g ai/ha) | Pre-emerge Herbicidal Activity ABUTH (phytotoxicity rating, scale 0-100) ([9]; 63 g ai/ha) | Pre-emerge Herbicidal Activity ABUTH (phytotoxicity rating, scale 0-100) ([9]; 250 g ai/ha) | Pre-emerge Herbicidal Activity CASOB (phytotoxicity rating, scale 0-100) ([10]; 250 g ai/ha) | Pre-emerge Herbicidal Activity SORHA (phytotoxicity rating, scale 0-100) ([11]; 250 g ai/ha) | Pre-emerge Herbicidal Activity CHEAL (phytotoxicity rating, scale 0-100) ([12]; 63 g ai/ha) | Pre-emerge Herbicidal Activity CHEAL (phytotoxicity rating, scale 0-100) ([12]; 250 g ai/ha) | Pre-emerge Herbicidal Activity DIGSA (phytotoxicity rating, scale 0-100) ([13]; 63 g ai/ha) | Pre-emerge Herbicidal Activity DIGSA (phytotoxicity rating, scale 0-100) ([13]; 250 g ai/ha) | Post-emerge Herbicidal Activity AMARE ([15]; 250 g ai/ha) | Post-emerge Herbicidal Activity IPOHE ([17]; 63 g ai/ha) | Post-emerge Herbicidal Activity IPOHE ([17]; 250 g ai/ha) | Post-emerge Herbicidal Activity ABUTH ([18]; 63 g ai/ha) | Post-emerge Herbicidal Activity ABUTH ([18]; 250 g ai/ha) | Post-emerge Herbicidal Activity CHEAL ([21]; 250 g ai/ha)
60: Post-emerge Herbicidal Activity CORN (crop damage) ([1]; 250 g ai/ha) | Post-emerge Herbicidal Activity RICE (crop damage) ([2]; 250 g ai/ha) | Pre-emerge crop damage RICE (phytotoxicity rating, scale 0-100) ([4]; 63 g ai/ha)
95: Post-emerge Herbicidal Activity CHEAL ([21]; 63 g ai/ha)
10: Post-emerge Herbicidal Activity CORN (crop damage) ([1]; 63 g ai/ha) | Post-emerge Herbicidal Activity SORHA ([20]; 63 g ai/ha) | Post-emerge Herbicidal Activity DIGSA ([22]; 63 g ai/ha)
65: Post-emerge Herbicidal Activity CASOB ([19]; 63 g ai/ha)
80: Pre-emerge Herbicidal Activity CASOB (phytotoxicity rating, scale 0-100) ([10]; 63 g ai/ha) | Post-emerge Herbicidal Activity SETVI ([16]; 250 g ai/ha)
25: Post-emerge Herbicidal Activity RICE (crop damage) ([2]; 63 g ai/ha)
30: Post-emerge Herbicidal Activity ECHCG ([14]; 63 g ai/ha)
90: Pre-emerge crop damage CORN (phytotoxicity rating, scale 0-100) ([3]; 250 g ai/ha) | Pre-emerge crop damage RICE (phytotoxicity rating, scale 0-100) ([4]; 250 g ai/ha) | Pre-emerge Herbicidal Activity ECHCG (phytotoxicity rating, scale 0-100) ([6]; 63 g ai/ha) | Pre-emerge Herbicidal Activity SORHA (phytotoxicity rating, scale 0-100) ([11]; 63 g ai/ha) | Post-emerge Herbicidal Activity ECHCG ([14]; 250 g ai/ha) | Post-emerge Herbicidal Activity AMARE ([15]; 63 g ai/ha) | Post-emerge Herbicidal Activity CASOB ([19]; 250 g ai/ha)
